± gives the standard deviation of the averaged measurements.
How the values were obtained:
Experiment in all cases: normalised growth rate inhibition (GR value) relative to DMSO control (GR (1 = untreated growth, 0 = cytostasis, <0 = cytotoxic)); higher = less growth inhibition
Details in all cases: 72 h
MDAMB231 = test system: MDAMB231
Method: (§1)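 Breast cancer cell lines (BT-20, Hs 578T, MCF 10A, MCF7, MDA-MB-231, SK-BR-3) were plated in 384-well plates and treated 24 h later with drugs at six concentrations (0.04-10 µM). Viable cells were counted by Hoechst/dead-cell-stain imaging at 0 and 72 h. Counts were normalised to DMSO controls on the same plate to give the relative cell count and the growth-rate inhibition (GR) value; technical plate triplicates were averaged for each biological replicate.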

MCF10A = test system: MCF10A
Method: as §1

BT20 = test system: BT20
Method: as §1

MCF7 = test system: MCF7
Method: as §1

SKBR3 = test system: SKBR3
Method: as §1

HS578T = test system: HS578T
Method: as §1

Compound	normalised growth rate inhibition (MDAMB231; 0.04 µM)	normalised growth rate inhibition (MDAMB231; 0.12 µM)	normalised growth rate inhibition (MDAMB231; 0.37 µM)	normalised growth rate inhibition (MDAMB231; 1.11 µM)	normalised growth rate inhibition (MDAMB231; 3.33 µM)	normalised growth rate inhibition (MDAMB231; 10 µM)	normalised growth rate inhibition (MCF10A; 0.04 µM)	normalised growth rate inhibition (MCF10A; 0.12 µM)	normalised growth rate inhibition (MCF10A; 0.37 µM)	normalised growth rate inhibition (MCF10A; 1.11 µM)	normalised growth rate inhibition (MCF10A; 3.33 µM)	normalised growth rate inhibition (MCF10A; 10 µM)	normalised growth rate inhibition (BT20; 0.04 µM)	normalised growth rate inhibition (BT20; 0.12 µM)	normalised growth rate inhibition (BT20; 0.37 µM)	normalised growth rate inhibition (BT20; 1.11 µM)	normalised growth rate inhibition (BT20; 3.33 µM)	normalised growth rate inhibition (BT20; 10 µM)	normalised growth rate inhibition (MCF7; 0.04 µM)	normalised growth rate inhibition (MCF7; 0.12 µM)	normalised growth rate inhibition (MCF7; 0.37 µM)	normalised growth rate inhibition (MCF7; 1.11 µM)	normalised growth rate inhibition (MCF7; 3.33 µM)	normalised growth rate inhibition (MCF7; 10 µM)	normalised growth rate inhibition (SKBR3; 0.04 µM)	normalised growth rate inhibition (SKBR3; 0.12 µM)	normalised growth rate inhibition (SKBR3; 0.37 µM)	normalised growth rate inhibition (SKBR3; 1.11 µM)	normalised growth rate inhibition (SKBR3; 3.33 µM)	normalised growth rate inhibition (SKBR3; 10 µM)	normalised growth rate inhibition (HS578T; 0.04 µM)	normalised growth rate inhibition (HS578T; 0.12 µM)	normalised growth rate inhibition (HS578T; 0.37 µM)	normalised growth rate inhibition (HS578T; 1.11 µM)	normalised growth rate inhibition (HS578T; 3.33 µM)	normalised growth rate inhibition (HS578T; 10 µM)
C[C@]1(O)C[C@@H](c2nc(-c3ccc4ccc(-c5ccccc5)nc4c3)c3c(N)nccn32)C1 [linsitinib]	0.791 ± 0.048	0.843 ± 0.067	0.861 ± 0.085	0.862 ± 0.068	0.838 ± 0.081	0.697 ± 0.099	0.956 ± 0.055	0.911 ± 0.081	0.824 ± 0.16	0.783 ± 0.18	0.731 ± 0.2	0.626 ± 0.26	0.841 ± 0.032	0.9 ± 0.032	0.949 ± 0.07	0.924 ± 0.054	0.896 ± 0.05	0.797 ± 0.051	0.721 ± 0.014	0.749 ± 0.12	0.555 ± 0.19	0.449 ± 0.14	0.383 ± 0.091	0.271 ± 0.089	0.657 ± 0.19	0.765 ± 0.11	0.806 ± 0.067	0.739 ± 0.072	0.678 ± 0.064	0.538 ± 0.085	0.975 ± 0.034	0.979 ± 0.024	0.93 ± 0.019	0.972 ± 0.048	0.963 ± 0.021	0.831 ± 0.072
COC1=C2C[C@@H](C)C[C@H](OC)[C@H](O)[C@@H](C)/C=C(\C)[C@H](OC(N)=O)[C@@H](OC)/C=C\C=C(/C)C(=O)NC(=CC1=O)C2=O [geldanamycin]	0.443 ± 0.2	0.0763 ± 0.097	0.0142 ± 0.17	-0.0565 ± 0.17	-0.148 ± 0.15	-0.284 ± 0.13	0.111 ± 0.066	-0.0212 ± 0.045	-0.0537 ± 0.053	-0.0551 ± 0.04	-0.0997 ± 0.049	-0.171 ± 0.06	0.262 ± 0.1	0.00984 ± 0.086	-0.0513 ± 0.1	-0.0518 ± 0.12	-0.114 ± 0.12	-0.238 ± 0.1	0.503 ± 0.079	0.134 ± 0.026	0.0361 ± 0.021	0.0592 ± 0.03	-0.0316 ± 0.038	-0.3 ± 0.085	0.0174 ± 0.11	-0.0672 ± 0.11	-0.0584 ± 0.085	-0.03 ± 0.059	-0.187 ± 0.11	-0.441 ± 0.14	0.762 ± 0.073	0.219 ± 0.12	0.143 ± 0.062	0.121 ± 0.071	0.0267 ± 0.14	-0.11 ± 0.17
CN(C)C/C=C/C(=O)Nc1cc2c(Nc3ccc(F)c(Cl)c3)ncnc2cc1O[C@H]1CCOC1 [afatinib]	0.845 ± 0.14	0.873 ± 0.047	0.755 ± 0.041	0.641 ± 0.09	0.537 ± 0.043	-0.205 ± 0.11	0.034 ± 0.14	0.0299 ± 0.097	0.034 ± 0.07	0.0532 ± 0.05	0.058 ± 0.067	0.0354 ± 0.032	0.704 ± 0.031	0.789 ± 0.017	0.814 ± 0.027	0.868 ± 0.059	0.855 ± 0.035	0.0471 ± 0.25	0.784 ± 0.14	0.81 ± 0.15	0.865 ± 0.079	0.736 ± 0.11	0.603 ± 0.15	-0.239 ± 0.083	-0.137 ± 0.2	-0.13 ± 0.17	-0.117 ± 0.16	-0.0678 ± 0.2	-0.0514 ± 0.15	-0.171 ± 0.11	0.9498 ± 0.0056	0.944 ± 0.032	0.944 ± 0.021	0.899 ± 0.025	0.852 ± 0.059	-0.152 ± 0.04
